Measured values published in patent US20090227619A1, “Harmine derivatives, intermediates used in their preparations, preparation processes and use therefo” (priority 2003, published 2009).
Read-outs that look alike come from different tables or passages of the source.

What was measured:
HepG2 = assay: In vitro cytotoxicity, IC50 by MTT method, HepG2; format: cell-based, human; settings: Homo sapiens; HepG2 cell strain; read-out: IC50 HepG2
Summary of the method: (§1)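 MTT viability, 48 h exposure: cells 10^5/ml in RPMI1640 + 10% FBS, 37 °C/5% CO2; MTT 4 h, DMSO solubilisation, A490.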

PLA-801 = assay: In vitro cytotoxicity, IC50 by MTT method, PLA-801; format: cell-based; settings: PLA-801 cell strain; read-out: IC50 PLA-801
Summary of the method: as §1

Bel-7402 = assay: In vitro cytotoxicity, IC50 by MTT method, Bel-7402; format: cell-based; settings: Homo sapiens, Bel-7402; Bel7402 cell strain; read-out: IC50 Bel7402
Summary of the method: as §1

BGC-823 = assay: In vitro cytotoxicity, IC50 by MTT method, BGC-823; format: cell-based; settings: Homo sapiens, BGC-823; BGC823 cell strain; read-out: IC50 BGC823
Summary of the method: as §1

Hela = assay: In vitro cytotoxicity, IC50 by MTT method, Hela; format: cell-based; settings: Homo sapiens; Hela cell strain; read-out: IC50 Hela
Summary of the method: as §1

Lovo = assay: In vitro cytotoxicity, IC50 by MTT method, Lovo; format: cell-based; settings: Homo sapiens; Lovo cell strain; read-out: IC50 Lovo
Summary of the method: as §1

NIH3T3 = assay: In vitro cytotoxicity, IC50 by MTT method, NIH3T3; format: cell-based; settings: Mus musculus; NIH3T3 cell strain; read-out: IC50 NIH3T3
Summary of the method: as §1

CT-DNA = assay: DNA thermal denaturation, determination of ΔTm; format: binding; settings: 20 uM compound, Tm of CT-DNA alone 61° C.
Experimental: Experiments were carried out in PE buffer (1 mM Na2HPO4, 0.1 mM EDTA, pH 7.6) in a thermostatically controlled cell hold, and the quartz cuvette (1 cm path length) was heated by circulating water at a heating rate of 0.5° C./min from 25 to 95° C. Amsacrine and Doxorubicin Hydrochloride were used as standards. In all cases, the concentration of CT-DNA was 15 ug/ml. The ‘melting’ temperature Tm was taken as the mid-point of the hyperchromic transition.
ΔTm=Tm^drug-DNA complex−Tm^DNA alone
The ΔTm of each compound was calculated, Experiments were repeated three times, and an average value was calculated.

Kunming mice = settings: for Death rate: single i.p.
Lewis lung cancer = settings: Lewis lung cancer; for Body weight of the animals, end, First time / Body weight of the animals, end, Second time: ip × 10qd; for Inhibition rate (%) Lewis cancer: comparison table 43, in vivo;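 on all read-outs here: mice implanted subcutaneously in the axilla with Lewis lung tumor cells, treated starting the following day, killed roughly three weeks after implantation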
S180 sarcoma = settings: S180 sarcoma; for Body weight of the animals, beginning, First time / Body weight of the animals, end, First time / Inhibition rate, First time / Weight of the tumor X ± SD, First time / Body weight of the animals, beginning, Second time / Body weight of the animals, end, Second time / Inhibition rate, Second time: ip × 10qd; for Inhibition rate (%) S180 sarcomata: comparison table 43, in vivo
in vivo = settings: both, Kunming, mouse, ip
[1] = CT-DNA 15 ug/ml, PE buffer pH 7.6
[2] = 50% male 50% female mice, 240 mg/kg
[3] = 50% male 50% female mice, 300 mg/kg
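Wherever Death rate is given: acute toxicity in Kunming mice grouped by sex, one intraperitoneal dose at five graded levels in Tween-80 plus 0.5% CMC-Na, deaths monitored over two weeks.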
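Wherever LD50 is given: acute toxicity in Kunming mice grouped by sex, one intraperitoneal dose at five graded levels in Tween-80 plus 0.5% CMC-Na, deaths monitored over two weeks.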
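Wherever MTD is given: acute toxicity in Kunming mice grouped by sex, one intraperitoneal dose at five graded levels in Tween-80 plus 0.5% CMC-Na, deaths monitored over two weeks.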
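Wherever Sex is given: acute toxicity in Kunming mice grouped by sex, one intraperitoneal dose at five graded levels in Tween-80 plus 0.5% CMC-Na, deaths monitored over two weeks.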

## OCc1cc2c3ccccc3n(Cc3ccccc3)c2cn1 [Compound 42, 9-benzyl-3-hydroxymethyl-β-carboline]
HepG2
  IC50: 90 µM
PLA-801
  IC50: 160 µM
Bel-7402
  IC50: 110 µM
BGC-823
  IC50: 110 µM
Hela
  IC50: 120 µM
Lovo
  IC50: 100 µM
NIH3T3
  IC50: 90 µM
CT-DNA; [1]
  ΔTm: −0.3 °C
CT-DNA; CT-DNA thermal denaturation
  ΔTm: −0.3 °C
Kunming mice; [2]
  Death rate: 50
Kunming mice; [3]
  Death rate: 80
Kunming mice; female mice, 240 mg/kg
  Death rate: 60
Kunming mice; female mice, 300 mg/kg
  Death rate: 80
Kunming mice; male mice, 240 mg/kg
  Death rate: 40
Kunming mice; male mice, 300 mg/kg
  Death rate: 80
Kunming mice; mouse, in vivo, ip
  LD50: 214 to 286 mg/kg
Lewis lung cancer; Dosage 50 (mg/ml)
  Body weight of the animals, end, First time: 24.7 g
  Body weight of the animals, end, Second time: 24.7 g
Lewis lung cancer; Dosage 50, ip × 10qd
  Body weight of the animals, beginning, First time: 20.0 g
  Inhibition rate, First time: 22.22%
  Weight of the tumor X ± SD, First time: 2.14 ± 0.26 g
  Body weight of the animals, beginning, Second time: 19.1 g
  Inhibition rate, Second time: 26.96%
  Weight of the tumor X ± SD, Second time: 1.89 ± 0.14 g
Lewis lung cancer; Dosage 100 (mg/ml)
  Body weight of the animals, end, First time: 25.1 g
  Body weight of the animals, end, Second time: 25.1 g
Lewis lung cancer; Dosage 100, ip × 10qd
  Body weight of the animals, beginning, First time: 20.3 g
  Inhibition rate, First time: 33.33%
  Weight of the tumor X ± SD, First time: 1.62 ± 0.12 g
  Body weight of the animals, beginning, Second time: 18.9 g
  Inhibition rate, Second time: 34.47%
  Weight of the tumor X ± SD, Second time: 1.92 ± 0.26 g
Lewis lung cancer
  Inhibition rate (%) Lewis cancer: 34.47%
S180 sarcoma; Dosage 50 (mg/ml)
  Body weight of the animals, beginning, First time: 19.5 g
  Body weight of the animals, end, First time: 24.7 g
  Inhibition rate, First time: 19.10%
  Weight of the tumor X ± SD, First time: 2.16 ± 0.38 g
  Body weight of the animals, beginning, Second time: 18.4 g
  Body weight of the animals, end, Second time: 25.6 g
  Inhibition rate, Second time: 20.74%
S180 sarcoma; Dosage 50, ip × 10qd
  Weight of the tumor X ± SD, Second time: 2.14 ± 0.23 g
S180 sarcoma; Dosage 100 (mg/ml)
  Body weight of the animals, beginning, First time: 19.2 g
  Body weight of the animals, end, First time: 24.3 g
  Inhibition rate, First time: 28.09%
  Weight of the tumor X ± SD, First time: 1.92 ± 0.25 g
  Body weight of the animals, beginning, Second time: 18.9 g
  Body weight of the animals, end, Second time: 25.1 g
  Inhibition rate, Second time: 25.15%
S180 sarcoma; Dosage 100, ip × 10qd
  Weight of the tumor X ± SD, Second time: 2.02 ± 0.36 g
S180 sarcoma
  Inhibition rate (%) S180 sarcomata: 28.09%
In vivo
  LD50 at 2 weeks: 247 mg/kg

## c1ccc(Cn2c3ccccc3c3ccncc32)cc1 [Compound 84, 9-Benzyl-β-carboline]
HepG2
  IC50: 110 µM
PLA-801
  IC50: 120 µM
Bel-7402
  IC50: 80 µM
BGC-823
  IC50: 70 µM
Hela
  IC50: 50 µM
Lovo
  IC50: 120 µM
NIH3T3
  IC50: 110 µM
CT-DNA; [1]
  ΔTm: 1.5 °C
CT-DNA; CT-DNA thermal denaturation
  ΔTm: 1.5 °C
Kunming mice; [2]
  Death rate: 0
Kunming mice; [3]
  Death rate: 30
Kunming mice; both, Kunming, mouse, in vivo, ip, 2 weeks
  Sex: 240
Kunming mice; female mice, 240 mg/kg
  Death rate: 0
Kunming mice; female mice, 300 mg/kg
  Death rate: 40
Kunming mice; male mice, 240 mg/kg
  Death rate: 0
Kunming mice; male mice, 300 mg/kg
  Death rate: 20
Lewis lung cancer; Dosage 50 (mg/ml)
  Body weight of the animals, end, First time: 24.1 g
  Body weight of the animals, end, Second time: 25.2 g
Lewis lung cancer; Dosage 50, ip × 10qd
  Body weight of the animals, beginning, First time: 19.0 g
  Inhibition rate, First time: 27.09%
  Weight of the tumor X ± SD, First time: 1.83 ± 0.11 g
  Body weight of the animals, beginning, Second time: 19.7 g
  Inhibition rate, Second time: 30.93%
  Weight of the tumor X ± SD, Second time: 1.63 ± 0.16 g
Lewis lung cancer; Dosage 100 (mg/ml)
  Body weight of the animals, end, First time: 24.2 g
  Body weight of the animals, end, Second time: 24.7 g
Lewis lung cancer; Dosage 100, ip × 10qd
  Body weight of the animals, beginning, First time: 18.5 g
  Inhibition rate, First time: 35.06%
  Weight of the tumor X ± SD, First time: 1.63 ± 0.11 g
  Body weight of the animals, beginning, Second time: 19.4 g
  Inhibition rate, Second time: 37.29%
  Weight of the tumor X ± SD, Second time: 1.48 ± 0.15 g
Lewis lung cancer
  Inhibition rate (%) Lewis cancer: 37.29%
S180 sarcoma; Dosage 50 (mg/ml)
  Body weight of the animals, beginning, First time: 19.6 g
  Body weight of the animals, end, First time: 26.8 g
  Inhibition rate, First time: 29.47%
  Weight of the tumor X ± SD, First time: 2.01 ± 0.24 g
  Body weight of the animals, beginning, Second time: 20.4 g
  Body weight of the animals, end, Second time: 25.4 g
  Inhibition rate, Second time: 31.23%
S180 sarcoma; Dosage 50, ip × 10qd
  Weight of the tumor X ± SD, Second time: 1.96 ± 0.16 g
S180 sarcoma; Dosage 100 (mg/ml)
  Body weight of the animals, beginning, First time: 19.7 g
  Body weight of the animals, end, First time: 26.4 g
  Inhibition rate, First time: 37.19%
  Weight of the tumor X ± SD, First time: 1.79 ± 0.27 g
  Body weight of the animals, beginning, Second time: 20.2 g
  Body weight of the animals, end, Second time: 25.0 g
  Inhibition rate, Second time: 37.19%
S180 sarcoma; Dosage 100, ip × 10qd
  Weight of the tumor X ± SD, Second time: 1.79 ± 0.16 g
S180 sarcoma
  Inhibition rate (%) S180 sarcomata: 37.19%
In vivo
  MTD at 2 weeks: 240 mg/kg
